{
  "source": "ChEMBL document CHEMBL1201862",
  "about": "“PubChem BioAssay data set” (2004)",
  "note": "Calls of active or inactive are those of the source.",
  "data": [
    {"test_system": "not listed separately", "assay": "Luminescence Cell-Based Dose Response HTS to Identify Inhibitors of 5'UTR Stem-Loop Driven Prion Protein mRNA Translation in H4 Neuroglioblastoma Cells. [Related pubchem assays: 1827 (Project Summary), 1813 (Primary HTS)]", "type": "functional", "conditions": "not given", "values": [
      {"smiles": "COc1ccc(-c2noc(CSc3nnc(CCc4ccccc4)n3-c3ccccc3)n2)cc1OC", "EC50": "14.5 µM (active)"},
      {"smiles": "COc1ccc(CNC(=O)C2CCN(c3nc(OC)nc(OC)n3)CC2)cc1", "EC50": "> 120 µM (not active)"},
      {"smiles": "COC(=O)c1cn(-c2ccc(Cl)cc2)c(=O)c2ccccc12", "EC50": "> 60 µM (not active)"},
      {"smiles": "COC(=O)c1cc2ccsc2n1CC(=O)Nc1cc(Cl)ccc1OC", "EC50": "> 120 µM (not active)"}
    ]},
    {"target": "Cytochrome P450 2D6 (Homo sapiens, UniProt P10635)", "sequence (P10635 whole entry)": "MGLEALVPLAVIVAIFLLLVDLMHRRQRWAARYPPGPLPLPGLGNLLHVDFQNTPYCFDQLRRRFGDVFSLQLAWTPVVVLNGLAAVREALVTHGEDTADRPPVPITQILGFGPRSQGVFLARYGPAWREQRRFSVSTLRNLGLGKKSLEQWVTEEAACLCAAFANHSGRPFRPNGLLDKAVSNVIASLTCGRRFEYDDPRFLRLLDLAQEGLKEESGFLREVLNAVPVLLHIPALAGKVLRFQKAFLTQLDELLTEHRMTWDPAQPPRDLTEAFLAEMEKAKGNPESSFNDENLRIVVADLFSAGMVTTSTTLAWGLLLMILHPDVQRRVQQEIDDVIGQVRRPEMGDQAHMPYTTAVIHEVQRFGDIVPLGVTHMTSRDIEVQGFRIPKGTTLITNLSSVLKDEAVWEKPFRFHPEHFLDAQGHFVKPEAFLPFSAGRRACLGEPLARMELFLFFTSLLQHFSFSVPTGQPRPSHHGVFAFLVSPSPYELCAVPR", "conditions": "not given", "values": [
      {"smiles": "CCNc1ncc2nc(-c3ccc(F)cc3)c(=O)n(CCC#N)c2n1", "AC50": "0.1 µM (inconclusive)"},
      {"smiles": "Cc1cc(-c2ccccc2)nnc1NCCN1CCOCC1", "note": "[MINAPRINE]", "AC50": "7.94 µM (inconclusive)"}
    ]},
    {"test_system": "not listed separately", "assay": "Luminescence Cell-Based Dose Retest to Confirm Inhibitors of Cancer Stem Cells. [Related pubchem assays (depositor defined):AID2717, AID2721]", "type": "functional", "conditions": "Homo sapiens", "values": [
      {"smiles": "Cc1cccc(NC(=O)c2nc[nH]c2C(=O)N[C@@H](C)c2ccccc2)c1", "AC50": "7.02 µM (active)"},
      {"smiles": "Cc1nn(-c2ccc(F)cc2)c(Cl)c1/C=C1\\C(=O)Nc2ccccc21", "AC50": "1.95 µM (active)"},
      {"smiles": "C/C(=N\\NC(=S)NC(C)C)c1ccc(C(C)(C)C)cc1", "AC50": "11 µM (active)"},
      {"smiles": "CCCCn1c(SCC(N)=O)nc2sc3c(c2c1=O)CCC3", "AC50": "126 µM (active)"}
    ]},
    {"target": "T1, Cytochrome P450 1A2 (Homo sapiens, UniProt P05177)", "T1 sequence (P05177 whole entry)": "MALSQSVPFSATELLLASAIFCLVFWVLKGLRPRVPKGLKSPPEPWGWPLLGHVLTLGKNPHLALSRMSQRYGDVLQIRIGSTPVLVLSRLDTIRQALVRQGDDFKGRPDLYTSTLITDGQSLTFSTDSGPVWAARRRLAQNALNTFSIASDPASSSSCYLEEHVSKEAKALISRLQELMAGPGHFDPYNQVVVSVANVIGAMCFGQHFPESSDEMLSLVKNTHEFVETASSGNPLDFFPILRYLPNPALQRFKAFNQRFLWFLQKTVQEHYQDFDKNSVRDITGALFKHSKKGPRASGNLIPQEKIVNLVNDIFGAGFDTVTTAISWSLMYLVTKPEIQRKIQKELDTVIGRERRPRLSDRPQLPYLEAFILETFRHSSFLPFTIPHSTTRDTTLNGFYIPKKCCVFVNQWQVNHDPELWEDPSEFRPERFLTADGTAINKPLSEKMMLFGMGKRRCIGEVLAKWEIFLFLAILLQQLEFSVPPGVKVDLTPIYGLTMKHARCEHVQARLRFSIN", "conditions": "not given", "values": [
      {"smiles": "O=c1c(CCc2ccccc2)nc2cnc(N3CCNCC3)nc2n1-c1ccccc1", "AC50": "15.8 µM (inconclusive)"},
      {"smiles": "CCNc1ncc2nc(-c3ccc(F)cc3)c(=O)n(CCC#N)c2n1", "AC50": "0.631 µM (inconclusive)"},
      {"smiles": "Cc1ccc(Oc2nnc(-c3ccccc3)cc2C#N)cc1", "AC50": "2.51 µM (inconclusive)"},
      {"smiles": "OC(COCc1ccccc1)Cn1cnc2ccccc21", "note": "(configuration not stated)", "AC50": "15.8 µM (inconclusive)"},
      {"smiles": "Clc1cc(I)cc(Cl)c1N=C1NCCN1", "note": "[PI-CLONIDINE]", "AC50": "15.8 µM (inconclusive)"},
      {"smiles": "O=C(NCCCN1CCN(C2CCCCC2)CC1)Nc1ccccc1C(F)(F)F", "AC50": "25.1 µM (inconclusive)"},
      {"smiles": "Cc1cc(-c2ccccc2)nnc1NCCN1CCOCC1", "note": "[MINAPRINE]", "AC50": "10 µM (inconclusive)"},
      {"smiles": "CC(=O)c1c(O)c(C)c(-c2ccccc2)n(-c2ccccc2)c1=O", "AC50": "6.31 µM (inconclusive)"},
      {"smiles": "Cc1nc2ccccc2nc1-c1ccc(/N=[N+](\\[O-])c2ccc(-c3nc4ccccc4nc3C)cc2)cc1", "AC50": "6.31 µM (inconclusive)"}
    ]},
    {"test_system": "not listed separately", "assay": "alpha-synuclein stem-loop luciferase translation blockers – H4 neuroglioma cells, luminescence, confirmation (AID 1988)", "type": "functional, cell-based", "conditions": "not given", "values": [
      {"smiles": "COc1ccc(-c2noc(CSc3nnc(CCc4ccccc4)n3-c3ccccc3)n2)cc1OC", "EC50": "> 120 µM (not active)"},
      {"smiles": "COc1ccc(CNC(=O)C2CCN(c3nc(OC)nc(OC)n3)CC2)cc1", "EC50": "> 120 µM (not active)"},
      {"smiles": "COC(=O)c1cn(-c2ccc(Cl)cc2)c(=O)c2ccccc12", "EC50": "> 120 µM (not active)"},
      {"smiles": "COC(=O)c1cc2ccsc2n1CC(=O)Nc1cc(Cl)ccc1OC", "EC50": "10.9 µM (active)"}
    ]},
    {"test_system": "not listed separately", "assay": "luciferase reporter signal suppression in cells – H4 neuroglioma cells, luminescence, dose response (AID 1990)", "type": "functional, cell-based", "conditions": "not given", "values": [
      {"smiles": "COc1ccc(-c2noc(CSc3nnc(CCc4ccccc4)n3-c3ccccc3)n2)cc1OC", "EC50": "14 µM (active)"},
      {"smiles": "COc1ccc(CNC(=O)C2CCN(c3nc(OC)nc(OC)n3)CC2)cc1", "EC50": "> 120 µM (not active)"},
      {"smiles": "COC(=O)c1cn(-c2ccc(Cl)cc2)c(=O)c2ccccc12", "EC50": "16.2 µM (active)"},
      {"smiles": "COC(=O)c1cc2ccsc2n1CC(=O)Nc1cc(Cl)ccc1OC", "EC50": "18.8 µM (active)"}
    ]},
    {"test_system": "INS1", "assay": "INS-1E survival protection against cytokine death – cell-based, luminescence, retest, dose response (AID 449756);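 note: cell death triggered by IL-1 beta plus TNF-alpha plus IFN-gamma mixture; protective hits raise ATP signal compared with cytokine alone wells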", "type": "functional", "conditions": "Rattus norvegicus", "values": [
      {"smiles": "O=C(Nc1cc(Sc2ccccn2)cc([N+](=O)[O-])c1)c1ccc(Cl)cc1", "AC50": "5.46 µM (active)"},
      {"smiles": "O=C(NCCCn1ccnc1)c1ccc(-c2ccccc2)cc1", "AC50": "7.41 µM (active)"},
      {"smiles": "c1ccc(-c2nnc(CSc3ccc4c(c3)OCCO4)o2)cc1", "AC50": "> 260 µM (inactive)"}
    ]},
    {"target": "Paired box protein Pax-8 (Homo sapiens, UniProt Q06710)", "sequence (Q06710 whole entry)": "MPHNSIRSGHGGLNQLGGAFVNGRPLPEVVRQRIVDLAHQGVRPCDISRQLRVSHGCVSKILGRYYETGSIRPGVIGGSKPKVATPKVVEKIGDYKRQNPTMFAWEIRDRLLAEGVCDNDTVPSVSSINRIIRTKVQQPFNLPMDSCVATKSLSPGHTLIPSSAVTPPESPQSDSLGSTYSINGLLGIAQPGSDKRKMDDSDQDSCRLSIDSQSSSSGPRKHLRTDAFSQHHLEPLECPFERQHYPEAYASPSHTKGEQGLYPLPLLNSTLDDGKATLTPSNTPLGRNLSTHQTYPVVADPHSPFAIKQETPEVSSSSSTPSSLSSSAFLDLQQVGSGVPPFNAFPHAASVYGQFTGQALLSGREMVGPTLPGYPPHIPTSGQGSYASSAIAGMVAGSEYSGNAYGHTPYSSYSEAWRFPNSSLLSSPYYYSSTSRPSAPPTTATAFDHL", "assay": "PAX8 transcriptional activity inhibition in RMG-I – RMG-I cells, luciferase, cherry-pick, dose response (AID 687027);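 note: luciferase reporter driven by Pax8 target thyroperoxidase promoter measured by SteadyGlo luminescence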", "type": "functional, cell-based", "conditions": "not given", "values": [
      {"smiles": "Oc1ccc(C[C@H]2CNC(=S)N2CC2CCCN2C[C@H](Cc2ccc(O)cc2)N2C[C@H](Cc3ccc(O)cc3)N(CC3CCCCC3)C2=S)cc1", "note": "(some centres not stated)", "AC50": "6.44 µM (active)"},
      {"smiles": "COc1cccc(S(=O)(=O)N2CC[C@H]3[C@@H](CO)N(C)c4ccc(C#Cc5ccc(F)cc5)cc4[C@H]32)c1", "AC50": "6.92 µM (active)"}
    ]}
  ]
}
